In assay [1] the target is T1, Abl kinase (SEQ ID NO: 1) (Homo sapiens, UniProt P00519).
T1 construct: purchased deCode Genetics
T1 sequence (P00519 with tags, fused parts or gaps): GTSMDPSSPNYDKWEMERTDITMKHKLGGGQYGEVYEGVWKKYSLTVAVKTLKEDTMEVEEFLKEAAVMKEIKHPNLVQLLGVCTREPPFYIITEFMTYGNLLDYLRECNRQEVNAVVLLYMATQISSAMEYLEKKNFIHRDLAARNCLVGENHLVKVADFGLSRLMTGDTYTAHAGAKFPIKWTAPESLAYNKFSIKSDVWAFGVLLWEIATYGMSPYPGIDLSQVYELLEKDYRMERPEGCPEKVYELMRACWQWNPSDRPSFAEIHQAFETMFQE
The experiment in a line: Abl kinase (SEQ ID NO:1) assay, pyruvate kinase/lactate dehydrogenase coupled. The settings on record: 2 h preincubation, ATP 500 μM; read-out: Biochemical IC50, Abl Enzyme Assay. A digest of the protocol:
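ADP formation was coupled to pyruvate kinase/lactate dehydrogenase, and NADH loss at 340 nm was followed continuously. Compounds were preincubated 2 h at 30° C before 500 μM ATP, and rates from 1.0–2.0 h gave % inhibition and IC50.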

Assay [2] addresses T2, T315I Abl kinase (SEQ ID NO:2) (Homo sapiens, UniProt P00519, T315I).
T2 construct: purchased deCode Genetics
T2 sequence (P00519 with tags, fused parts or gaps T315I): T1 sequence (P00519 with tags, fused parts or gaps) with T94I
In words: T315I Abl kinase (SEQ ID NO:2) assay, pyruvate kinase/lactate dehydrogenase coupled. The conditions noted are these: 1 h preincubation, ATP 500 μM; read-out: Biochemical IC50, Abl T315I Enzyme Assay.

The target of assay [3] is T3, c-Kit kinase (SEQ ID NO:9) (Homo sapiens, UniProt P10721).
T3 construct: contained c-Kit (cKIT residues T544-V976, from ProQinase, 5.4 nM); purchased ProQinase
The experiment in a line: C-Kit kinase (SEQ ID NO:9) assay, pyruvate kinase/lactate dehydrogenase coupled. The conditions noted are these: <2 min preincubation, ATP 200 μM; read-out: Biochemical IC50, c-Kit Enzyme Assay. The method, then:
C-Kit Kinase (SEQ ID NO:9) Assay
Activity of c-Kit kinase (SEQ ID NO:9) was determined by following the production of ADP from the kinase reaction through coupling with the pyruvate kinase/lactate dehydrogenase system (e.g., Schindler, et al. Science (2000) 289, 1938-1942). In this assay, the oxidation of NADH (thus the decrease at A340 nm) was continuously monitored spectrophometrically. The reaction mixture (100 μl) contained c-Kit (cKIT residues T544-V976, from ProQinase, 5.4 nM), polyE4Y (1 mg/ml), MgCl2 (10 mM), pyruvate kinase (4 units), lactate dehydrogenase (0.7 units), phosphoenol pyruvate (1 mM), and NADH (0.28 mM) in 90 mM Tris buffer containing 0.2% octyl-glucoside and 1% DMSO, pH 7.5. Test compounds were incubated with […] (SEQ ID NO:9) and other reaction reagents at 22° C. for <2 min before ATP (200 μM) was added to start the reaction. The absorption at 340 nm was monitored continuously for 0.5 hours at 30° C. on Polarstar Optima plate reader (BMG). The reaction rate was calculated using the 0 to 0.5 h time frame. Percent inhibition was obtained by comparison of reaction rate with that of a control (i.e. with no test compound). IC50 values were calculated from a series of percent inhibition values determined at a range of inhibitor concentrations using software routines as implemented in the GraphPad Prism software package.

Substitutions are numbered along the chain they refer to.

T3 sequence (P10721 with tags, fused parts or gaps): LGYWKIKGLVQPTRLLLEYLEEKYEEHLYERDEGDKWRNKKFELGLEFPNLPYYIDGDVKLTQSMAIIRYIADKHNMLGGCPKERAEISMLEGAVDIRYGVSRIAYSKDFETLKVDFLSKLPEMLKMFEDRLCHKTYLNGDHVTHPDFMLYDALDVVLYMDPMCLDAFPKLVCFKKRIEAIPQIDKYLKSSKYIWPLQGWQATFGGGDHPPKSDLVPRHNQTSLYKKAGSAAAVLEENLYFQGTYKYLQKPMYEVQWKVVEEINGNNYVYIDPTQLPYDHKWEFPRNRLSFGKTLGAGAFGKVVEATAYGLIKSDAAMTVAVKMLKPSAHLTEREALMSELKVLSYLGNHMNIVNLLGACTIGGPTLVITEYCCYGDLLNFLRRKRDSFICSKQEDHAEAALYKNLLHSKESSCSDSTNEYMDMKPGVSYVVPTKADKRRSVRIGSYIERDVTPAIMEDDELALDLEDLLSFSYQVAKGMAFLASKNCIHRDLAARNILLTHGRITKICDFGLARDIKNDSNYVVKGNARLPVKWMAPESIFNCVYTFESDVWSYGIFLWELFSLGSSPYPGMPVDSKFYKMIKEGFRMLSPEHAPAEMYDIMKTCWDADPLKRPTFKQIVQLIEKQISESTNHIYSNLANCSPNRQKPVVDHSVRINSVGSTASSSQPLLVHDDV

On to `Cn1cc(-c2cc(Oc3ccc(NC(=O)Nc4nnc(C(C)(C)C)s4)c(F)c3)ccn2)cn1` [Example 11, 1-(5-tert-butyl-1,3,4-thiadiazol-2-yl)-3-(2-fluoro-4-(2-(1-methyl-1H-pyrazol-4-yl)pyridin-4-yloxy)phenyl)urea], for which the IC50 in assay [1], in assay [2] and in assay [3] was < 100 nM each time.

Consider `Cn1cc(-c2cc(Oc3ccc(NC(=O)Nc4cc(C(F)(F)F)c[nH]c4=O)c(F)c3)ccn2)cn1` [Example 27, 1-(2-fluoro-4-(2-(1-methyl-1H-pyrazol-4-yl)pyridin-4-yloxy)phenyl)-3-(2-oxo-5-(trifluoromethyl)-1,2-dihydropyridin-3-yl)urea], for which the IC50 in assay [1], in assay [2] and in assay [3] was < 100 nM throughout.

As to `Cn1cc(-c2cc(Oc3ccc(NC(=O)Nc4cnn(C(C)(C)C)c4)c(F)c3)ccn2)cn1` [Example 5, 1-(1-t-butyl-1H-pyrazol-4-yl)-3-(2-fluoro-4-(2-(1-methyl-1H-pyrazol-4-yl)pyridin-4-yloxy)phenyl)urea], the concentration for half-maximal inhibition (IC50) in assay [1], in assay [2] and in assay [3] was < 100 nM each time.

As for `Cc1oc(C(C)(C)C)cc1NC(=O)Nc1ccc(Oc2ccnc(-c3cnn(C)c3)c2)cc1F` [Example 28, 1-(5-tert-butyl-2-methylfuran-3-yl)-3-(2-fluoro-4-(2-(1-methyl-1H-pyrazol-4-yl)pyridin-4-yloxy)phenyl)urea], the IC50 in assay [1], in assay [2] and in assay [3] was < 100 nM in each case.

On to `Cn1cc(-c2cc(Oc3ccc(NC(=O)Nc4cc(C(F)(F)F)cnc4-c4cnn(C)c4)c(F)c3)ccn2)cn1` [Example 42, 1-(2-fluoro-4-(2-(1-methyl-1H-pyrazol-4-yl)pyridin-4-yloxy)phenyl)-3-(2-(1-methyl-1H-pyrazol-4-yl)-5-(trifluoromethyl)pyridin-3-yl)urea], for which the IC50 in assay [1], in assay [2] and in assay [3] was < 100 nM in each case.

For the compound `Cn1cc(-c2cc(Oc3ccc(NC(=O)Nc4cc(C(C)(C)C)no4)c(F)c3F)ccn2)cn1` [Example 25, 1-(3-tert-butylisoxazol-5-yl)-3-(2,3-difluoro-4-(2-(1-methyl-1H-pyrazol-4-yl)pyridin-4-yloxy)phenyl)urea], the IC50 in assay [1], in assay [2] and in assay [3] was < 100 nM throughout.

For the compound `Cn1cc(-c2cc(Oc3ccc(NC(=O)Nc4cccc(C(F)(F)F)c4)c(F)c3)ccn2)cn1` [Example 3, 1-(2-fluoro-4-(2-(1-methyl-1H-pyrazol-4-yl)pyridin-4-yloxy)phenyl)-3-(3-(trifluoromethyl)phenyl)urea], the IC50 in assay [1], in assay [2] and in assay [3] was < 100 nM throughout.

As for `Cn1cc(-c2cc(Oc3ccc(NC(=O)Nc4cnn(C5CCCC5)c4)c(F)c3)ccn2)cn1` [Example 15, 1-(1-cyclopentyl-1H-pyrazol-4-yl)-3-(2-fluoro-4-(2-(1-methyl-1H-pyrazol-4-yl)pyridin-4-yloxy)phenyl)urea], the IC50 in assay [1], in assay [2] and in assay [3] was < 100 nM in each case.

In the case of `Cn1cc(-c2cc(Oc3ccc(NC(=O)Nc4cnc(C(C)(C)C)nc4N4CCOCC4)c(F)c3)ccn2)cn1` [Example 41, 1-(2-tert-butyl-4-morpholinopyrimidin-5-yl)-3-(2-fluoro-4-(2-(1-methyl-1H-pyrazol-4-yl)pyridin-4-yloxy)phenyl)urea], the IC50 was < 1000 nM in assay [1], < 100000 nM in assay [2] and < 100000 nM in assay [3].

Take `Cn1cc(-c2cc(Oc3ccc(NC(=O)Nc4cnn(C(C)(C)C)c4C(F)(F)F)c(F)c3)ccn2)cn1` [Example 9, 1-(1-tert-butyl-5-(trifluoromethyl)-1H-pyrazol-4-yl)-3-(2-fluoro-4-(2-(1-methyl-1H-pyrazol-4-yl)pyridin-4-yloxy)phenyl)urea]: the IC50 in assay [1] is < 100 nM; in assay [2], < 100000 nM; in assay [3] it was < 100 nM.

For “1-(2-fluoro-4-(2-(1-methyl-1H-pyrazol-4-yl)pyridin-4-yloxy)phenyl)-3-(3-(1-methylcyclopentyl)isoxazol-5-yl)urea [Example 14]”, the half-inhibitory concentration (IC50) in assay [1], in assay [2] and in assay [3] was < 100 nM in each case.

As to `Cn1cc(-c2cc(Oc3ccc(NC(=O)Nc4cc(C(C)(C)C)nn4C)c(F)c3)ccn2)cn1` [Example 2, 1-(3-t-butyl-1-methyl-1H-pyrazol-5-yl)-3-(2-fluoro-4-(2-(1-methyl-1H-pyrazol-4-yl)pyridin-4-yloxy)phenyl)urea], the 50% inhibitory concentration (IC50) in assay [1], in assay [2] and in assay [3] was < 100 nM throughout.

Take `Cn1cc(-c2cc(Oc3ccc(NC(=O)Nc4cnn(C(C)(C)C)c4)c(F)c3F)ccn2)cn1` [Example 8, 1-(1-tert-butyl-1H-pyrazol-4-yl)-3-(2,3-difluoro-4-(2-(1-methyl-1H-pyrazol-4-yl)pyridin-4-yloxy)phenyl)urea]: the IC50 in assay [1], in assay [2] and in assay [3] was < 100 nM each time.

Turning to `Cn1cc(-c2cc(Oc3ccc(NC(=O)Nc4cncc(C(F)(F)F)c4)c(F)c3)ccn2)cn1` [Example 21, 1-(2-fluoro-4-(2-(1-methyl-1H-pyrazol-4-yl)pyridin-4-yloxy)phenyl)-3-(5-(trifluoromethyl)pyridin-3-yl)urea], the IC50 in assay [1], in assay [2] and in assay [3] was < 100 nM in each case.

Consider `Cc1c(NC(=O)Nc2ccc(Oc3ccnc(-c4cnn(C)c4)c3)cc2F)cnn1C(C)(C)C` [Example 10, 1-(1-tert-butyl-5-methyl-1H-pyrazol-4-yl)-3-(2-fluoro-4-(2-(1-methyl-1H-pyrazol-4-yl)pyridin-4-yloxy)phenyl)urea], for which the IC50 in assay [1] was < 100 nM; in assay [2] it was < 10000 nM; in assay [3], < 100 nM.

For the compound `Cn1cc(-c2cc(Oc3ccc(NC(=O)Nc4cncc(C(F)(F)F)c4)cc3)ccn2)cn1` [Example 6, 1-(4-(2-(1-methyl-1H-pyrazol-4-yl)pyridin-4-yloxy)phenyl)-3-(5-(trifluoromethyl)pyridin-3-yl)urea], the IC50 in assay [1], in assay [2] and in assay [3] was < 100 nM each time.

`Cn1cc(-c2cc(Oc3ccc(NC(=O)Nc4cc(C(C)(C)C)no4)c(F)c3)ccn2)cn1` [Example 1, 1-(3-t-butylisoxazol-5-yl)-3-(2-fluoro-4-(2-(1-methyl-1H-pyrazol-4-yl)pyridin-4-yloxy)phenyl)urea]: the IC50 in assay [1], in assay [2] and in assay [3] was < 100 nM throughout.

`CC(C)c1cncc(NC(=O)Nc2ccc(Oc3ccnc(-c4cnn(C)c4)c3)cc2F)c1` [Example 22, 1-(2-fluoro-4-(2-(1-methyl-1H-pyrazol-4-yl)pyridin-4-yloxy)phenyl)-3-(5-isopropylpyridin-3-yl)urea]: the IC50 in assay [1], in assay [2] and in assay [3] was < 100 nM throughout.

On to `CN(C)CCn1nc(C(C)(C)C)cc1NC(=O)Nc1ccc(Oc2ccnc(-c3cnn(C)c3)c2)cc1F` [Example 12, 1-(3-tert-butyl-1-(2-(dimethylamino)ethyl)-11H-pyrazol-5-yl)-3-(2-fluoro-4-(2-(1-methyl-1H-pyrazol-4-yl)pyridin-4-yloxy)phenyl)urea], for which the IC50 in assay [1], in assay [2] and in assay [3] was < 100 nM each time.

Values taken from patent US8143293B2, “Kinase inhibitors useful for the treatment of myleoprolific diseases and other proliferative diseases” (Deciphera Pharmaceuticals, LLC, priority 2007, dated 2012).
